Columns and labels:
sGC α1/β1 heterodimer = target: T1, sGC α1/β1 heterodimer (Homo sapiens, UniProt Q02108+Q02153); experiment: Cell-Based sGC Functional Assay (CASA Assay); settings: CHO-K1/sGC cells; for EC50: intracellular cGMP by HTRF, 1 hr at 37° C., IP from 4P fit, presence or absence of 1 μM DETA-NO not given; for Emax: cGMP as percentage of maximum cGMP production of Compound A (=100% activation), read-out: % ACT (percent activation)
T1 construct: expressed in transfected cells
T1 sequence (Q02108 1-690): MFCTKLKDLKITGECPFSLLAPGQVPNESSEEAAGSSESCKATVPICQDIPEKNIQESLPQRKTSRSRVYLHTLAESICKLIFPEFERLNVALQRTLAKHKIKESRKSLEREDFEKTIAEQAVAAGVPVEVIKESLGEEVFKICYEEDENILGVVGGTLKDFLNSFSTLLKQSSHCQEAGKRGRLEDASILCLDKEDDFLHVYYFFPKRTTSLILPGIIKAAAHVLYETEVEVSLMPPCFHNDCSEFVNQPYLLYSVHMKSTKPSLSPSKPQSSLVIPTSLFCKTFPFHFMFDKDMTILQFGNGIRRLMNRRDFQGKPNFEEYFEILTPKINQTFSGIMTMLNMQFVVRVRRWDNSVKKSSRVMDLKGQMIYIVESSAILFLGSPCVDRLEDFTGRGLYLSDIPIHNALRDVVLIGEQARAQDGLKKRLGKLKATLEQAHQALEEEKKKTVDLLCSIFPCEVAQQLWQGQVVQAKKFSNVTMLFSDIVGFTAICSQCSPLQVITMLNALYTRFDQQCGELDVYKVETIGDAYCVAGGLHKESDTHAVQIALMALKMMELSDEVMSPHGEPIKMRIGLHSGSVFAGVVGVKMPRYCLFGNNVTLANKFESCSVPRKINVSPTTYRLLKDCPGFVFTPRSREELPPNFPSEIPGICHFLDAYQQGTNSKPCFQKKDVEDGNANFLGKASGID
T1 sequence (Q02153 1-619): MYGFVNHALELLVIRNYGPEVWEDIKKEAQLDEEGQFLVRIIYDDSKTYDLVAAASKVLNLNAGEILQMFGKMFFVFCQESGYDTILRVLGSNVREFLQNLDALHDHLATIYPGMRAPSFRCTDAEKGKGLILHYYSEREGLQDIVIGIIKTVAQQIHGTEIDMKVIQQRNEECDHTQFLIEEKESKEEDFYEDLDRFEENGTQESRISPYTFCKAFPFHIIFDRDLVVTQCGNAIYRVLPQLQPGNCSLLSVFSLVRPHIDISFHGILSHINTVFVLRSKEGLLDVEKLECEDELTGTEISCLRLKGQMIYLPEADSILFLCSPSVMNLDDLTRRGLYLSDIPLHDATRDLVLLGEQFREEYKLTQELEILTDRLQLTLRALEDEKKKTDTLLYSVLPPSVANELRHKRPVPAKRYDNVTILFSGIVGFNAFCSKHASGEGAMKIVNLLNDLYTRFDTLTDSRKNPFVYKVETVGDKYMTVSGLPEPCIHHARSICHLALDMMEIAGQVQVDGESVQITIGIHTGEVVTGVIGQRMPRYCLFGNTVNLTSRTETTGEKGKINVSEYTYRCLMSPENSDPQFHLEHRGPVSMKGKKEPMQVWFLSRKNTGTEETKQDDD
Procedure, shortened: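 CHO-K1 cells stably expressing human sGC α1/β1 were incubated with compound (2.5% DMSO) for 1 hr at 37 °C with 0.5 mM IBMX, with or without 1 μM DETA-NO. Intracellular cGMP was measured by HTRF and expressed as % of the maximal cGMP produced by a reference sGC heme-dependent activator. IP and maximum fold induction came from a 4-parameter fit.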

[1] = tested on: Spontaneously hypertensive rats (SHR); experiment: Acute Efficacy in Spontaneously Hypertensive Rats (SHR); format: in vivo, rat; settings: single oral gavage
Text: Acute Efficacy in Spontaneously Hypertensive Rats (SHR)
Spontaneously hypertensive rats (SHR, male, Charles River) were implanted with DSI TA 11PA-C40 telemetry device (Data Sciences, Inc., St. Paul, Minn.) under isoflurane or ketamine/metomidine anesthesia. The telemetry unit catheter was inserted into the descending aorta via the femoral artery and the telemetry device was implanted subcutaneously in the left flank area. Animals were allowed to recover from surgery for 14 days before the start of any studies. Blood pressure, heart rate, and activity signals from conscious, freely moving rats were recorded continuously for 30 seconds every 10 min. On the day prior to administration of compound, a single oral dose of vehicle (10% transcutol/20% Cremophor/70% water) was administered to all animals to establish baseline control data. The blood pressure lowering efficacy of compound (PO) or vehicle was evaluated following a single oral gavage. Data were collected as hourly averages, and changes in blood pressure were calculated by subtracting control baseline data on an hourly basis. Animals were maintained on normal diet with a 12 h light-dark cycle.
Maximum peak decreases of systolic blood pressure (SBP) in SHR at a particular P.O. dose (mpk milligrams per kilogram) for the following Example compounds are provided. Category A=SBP in SHRs<25 mmHg; Category B=SBP in SHRs 25-40 mmHg; Category C=SBP in SHRs>40 mmHg.

Row | EC50 (sGC α1/β1 heterodimer) [nM] | Emax (sGC α1/β1 heterodimer) [%] | Compound | Maximum peak decrease of systolic blood pressure (SBP) in SHR, Category ([1]; Dose 3 mpk P.O.) | Maximum peak decrease of systolic blood pressure (SBP) in SHR, Category ([1]; Dose 1 mpk P.O.)
1 | 61 | 91 | Cn1ccc2c(-c3nc(N)c4c(n3)NC(=O)C4(C)c3ccc(F)cc3)nc(CCC(F)(F)C(F)(F)F)nc21 (single isomer, unassigned) [Example 61, 4-Amino-5-(4-fluorophenyl)-5,7′-dimethyl-2′-(3,3,4,4,4-pentafluorobutyl)-5H,7′H-[2,4′-bipyrrolo[2,3-d]pyrimidin]-6(7H)-one] |  | A (Category A=SBP in SHRs<25 mmHg)
2 | 46 | 110 | Cn1ncc2c(-c3nc(N)c4c(n3)NC(=O)C4(C)c3ccc(F)cc3)nc(CCC(F)(F)C(F)(F)F)nc21 (single isomer, unassigned) [Example 9, 4-Amino-5-(4-fluorophenyl)-5-methyl-2-(1-methyl-6-(3,3,4,4,4-pentafluorobutyl)-1H-pyrazolo[3,4-d]pyrimidin-4-yl)-5H-pyrrolo[2,3-d]pyrimidin-6(7H)-one] |  | C (Category C=SBP in SHRs>40 mmHg)
3 | 1140 | 98 | [2H]C([2H])([2H])n1nnc2c(-c3nc(N)c4c(n3)NC(=O)C4(c3ccc(F)cc3)C3CC3)nc(CCC(F)(F)C(F)(F)F)nc21 (single isomer, unassigned) [Example 69, 4-Amino-5-cyclopropyl-5-(4-fluorophenyl)-2-(5-(3,3,4,4,4-pentafluorobutyl-3-trideuteriomethyl)-3H-[1,2,3]triazolo[4,5-d]pyrimidin-7-yl)-5H-pyrrolo[2,3-d]pyrimidin-6(7H)-one] | B (Category B=SBP in SHRs 25-40 mmHg) | 
4 | 285 | 75 | [2H]C([2H])([2H])n1ncc2c(-c3nc(N)c4c(n3)NC(=O)C4(C)C)nc(CCC(F)(F)C(F)(F)F)nc21 [Example 12, 4-Amino-5,5-dimethyl-2-(6-(3,3,4,4,4-pentafluorobutyl)-1-trideuteriomethyl-1H-pyrazolo[3,4-d]pyrimidin-4-yl)-5H-pyrrolo[2,3-d]pyrimidin-6(7H)-one] |  | B (Category B=SBP in SHRs 25-40 mmHg)
5 | 32 | 97 | [2H]C([2H])([2H])n1ncc2c(-c3nc(N)c4c(n3)NC(=O)C4(C)c3ccc(F)cc3)nc(CCC(F)(F)C(F)(F)F)nc21 (single isomer, unassigned) [Example 2, 4-Amino-5-(4-fluorophenyl)-5-methyl-2-(6-(3,3,4,4,4-pentafluorobutyl)-1-trideuteriomethyl-1H-pyrazolo[3,4-d]pyrimidin-4-yl)-5H-pyrrolo[2,3-d]pyrimidin-6(7H)-one] |  | C (Category C=SBP in SHRs>40 mmHg)
6 | 1070 | 114 | [2H]C([2H])([2H])n1nnc2c(-c3nc(N)c4c(n3)NC(=O)C4(C)c3ccc(F)cc3)nc(CCC(F)(F)C(F)(F)F)nc21 (single isomer, unassigned) [Example 67, 4-Amino-5-(4-fluorophenyl)-5-methyl-2-(5-(3,3,4,4,4-pentafluorobutyl-3-trideuteriomethyl)-3H-[1,2,3]triazolo[4,5-d]pyrimidin-7-yl)-5H-pyrrolo[2,3-d]pyrimidin-6(7H)-one] |  | A (Category A=SBP in SHRs<25 mmHg)

Second part, the compound before the results:

Row | Compound | EC50 (sGC α1/β1 heterodimer) [nM] | Emax (sGC α1/β1 heterodimer) [%] | Maximum peak decrease of systolic blood pressure (SBP) in SHR, Category ([1]; Dose 3 mpk P.O.) | Maximum peak decrease of systolic blood pressure (SBP) in SHR, Category ([1]; Dose 1 mpk P.O.)
7 | Cn1ncc2c(-c3nc(N)c4c(n3)NC(=O)C4(C)c3ccc(F)cc3)nc(Cc3cccc(F)c3F)nc21 (single isomer, unassigned) [Example 6, 4-Amino-2-(6-(2,3-difluorobenzyl)-1-methyl-1H-pyrazolo[3,4-d]pyrimidin-4-yl)-5-(4-fluorophenyl)-5-methyl-5H-pyrrolo[2,3-d]pyrimidin-6(7H)-one] | 157 | 127 | A (Category A=SBP in SHRs<25 mmHg) | 
8 | Cn1ncc2c(-c3nc(N)c4c(n3)NC(=O)C4(C)c3ccccc3)nc(CCC(F)(F)F)nc21 (single isomer, unassigned) [Example 4, 4-Amino-5-methyl-2-(1-methyl-6-(3,3,3-trifluoropropyl)-1H-pyrazolo[3,4-d]pyrimidin-4-yl)-5-phenyl-5H-pyrrolo[2,3-d]pyrimidin-6(7H)-one] | 130 | 108 | C (Category C=SBP in SHRs>40 mmHg) | 
9 | CCn1ncc2c(-c3nc(N)c4c(n3)NC(=O)C4(C)c3ccccc3)nc(CCC(F)(F)C(F)(F)F)nc21 (single isomer, unassigned) [Example 7, 4-Amino-2-(1-ethyl-6-(3,3,4,4,4-pentafluorobutyl)-1H-pyrazolo[3,4-d]pyrimidin-4-yl)-5-methyl-5-phenyl-5H-pyrrolo[2,3-d]pyrimidin-6(7H)-one] | 85 | 110 | B (Category B=SBP in SHRs 25-40 mmHg) | 
10 | Cn1ncc2c(-c3nc(N)c4c(n3)NC(=O)C4(C)c3ccccc3)nc(CCC(F)(F)C(F)(F)F)nc21 (single isomer, unassigned) [Example 1, 4-Amino-5-methyl-2-(1-methyl-6-(3,3,4,4,4-pentafluorobutyl)-1H-pyrazolo[3,4-d]pyrimidin-4-yl)-5-phenyl-5H-pyrrolo[2,3-d]pyrimidin-6(7H)-one] | 40 | 101 |  | C (Category C=SBP in SHRs>40 mmHg)
11 | Cn1ccc2c(-c3nc(N)c4c(n3)NC(=O)C4(C)c3ccccc3)nc(CCC(F)(F)C(F)(F)F)nc21 (single isomer, unassigned) [Example 62, 4-Amino-5,7′-dimethyl-2′-(3,3,4,4,4-pentafluorobutyl)-5-phenyl-5H,7′H-[2,4′-bipyrrolo[2,3-d]pyrimidin]-6(7H)-one] | 19 | 92 |  | A (Category A=SBP in SHRs<25 mmHg)
12 | [2H]C([2H])([2H])n1ncc2c(-c3nc(N)c4c(n3)NC(=O)C4(C(=O)NC3CC3)C3CC3)nc(CCC(F)(F)C(F)(F)F)nc21 (single isomer, unassigned) [Example 28, 4-Amino-N,5-dicyclopropyl-2-(6-(3,3,4,4,4-pentafluorobutyl)-1-trideuteriomethyl-1H-pyrazolo[3,4-d]pyrimidin-4-yl)-6-oxo-6,7-dihydro-5H-pyrrolo[2,3-d]pyrimidine-5-carboxamide] | 53 | 112 |  | C (Category C=SBP in SHRs>40 mmHg)
